Test results published in PubChem BioAssay (NCI).
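Protocol summary: plate cells (96-well), add compound at 5 concentrations, incubate 48 h, interpolate endpoints linearly. At the GI50, growth is halved. TGI is the concentration that stops growth completely.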

Columns and labels:
Assay in all cases: NCI anticancer screen, dose series, 48 h
[1] = test system: HCT-15 colon
[2] = test system: HL-60(TB) leukemia
[3] = test system: HOP-62 NSCLC
[4] = test system: HT29 colon
[5] = test system: M14 melanoma
[6] = test system: MALME-3M melanoma
[7] = test system: NCI-H460 lung
[8] = test system: RPMI-8226 leukemia
[9] = test system: SF-539 CNS
[10] = test system: MDA-N
[11] = test system: NCI-H23 lung

Structure (SMILES): CC(/C=C/c1ncccc1OCCCCCC(=O)O)=N\NC1=NCCN1
- TGI [1]: > 100 µM
- TGI [2]: > 100 µM
- TGI [3]: > 100 µM
- TGI [4]: > 100 µM
- TGI [5]: > 100 µM
- TGI [6]: > 100 µM
- TGI [7]: > 100 µM
- TGI [8]: > 100 µM
- TGI [9]: > 100 µM

Structure (SMILES): CN(C)C(=S)Nc1nnc(NC23CC4CC(CC(C4)C2)C3)s1
- TGI [1]: 28.8 µM
- TGI [2]: 31.9 µM
- TGI [3]: 33.9 µM
- TGI [4]: 19.2 µM
- TGI [5]: 29.7 µM
- TGI [6]: 53.3 µM
- TGI [7]: 26.8 µM
- TGI [8]: 51.1 µM

Structure (SMILES): C=C1C(=O)OC2/C=C(\C)CC/C=C(/C)CC(OC(=O)/C(=C/CO)CO)C12 (stereo not given)
- TGI [1]: 37.7 µM
- TGI [2]: 20.7 µM
- TGI [3]: > 100 µM
- TGI [4]: 75.3 µM
- TGI [5]: 39 µM
- TGI [6]: 42.2 µM
- TGI [10]: 47.2 µM
- TGI [11]: 39.1 µM
- TGI [7]: > 100 µM
- TGI [8]: 72.7 µM
- TGI [9]: 66.3 µM

Structure (SMILES): C1CNCCN2CCCNCCN(C1)CC2
- TGI [1]: > 100 µM
- TGI [3]: > 100 µM
- TGI [4]: > 100 µM
- TGI [5]: > 100 µM
- TGI [6]: > 100 µM
- TGI [10]: > 100 µM
- TGI [11]: > 100 µM
- TGI [7]: > 100 µM
- TGI [8]: > 100 µM
- TGI [9]: > 100 µM

Structure (SMILES): CS(C)(=O)=N/C=C\C(=O)C(Cl)(Cl)Cl
- TGI [1]: > 100 µM
- TGI [2]: > 100 µM
- TGI [3]: > 100 µM
- TGI [4]: > 100 µM
- TGI [5]: > 100 µM
- TGI [6]: > 100 µM
- TGI [10]: > 100 µM
- TGI [11]: > 100 µM
- TGI [7]: > 100 µM
- TGI [8]: > 100 µM
- TGI [9]: > 100 µM

Structure (SMILES): COc1ccc2c(c1)/C(=C(\C(Cl)=C(Cl)Cl)[N+](=O)[O-])N2
- TGI [1]: > 100 µM
- TGI [2]: > 100 µM
- TGI [3]: > 100 µM
- TGI [4]: > 100 µM
- TGI [5]: > 100 µM
- TGI [6]: > 100 µM
- TGI [10]: > 100 µM
- TGI [11]: > 100 µM
- TGI [7]: > 100 µM

Structure (SMILES): O=C1CCCCC/C=C2/CC[C@H](Sc3ccccc3)[C@@H]12
- TGI [1]: > 100 µM
- TGI [2]: > 100 µM
- TGI [3]: > 100 µM
- TGI [4]: > 100 µM
- TGI [5]: > 100 µM
- TGI [6]: > 100 µM
- TGI [11]: > 100 µM
- TGI [7]: > 100 µM
- TGI [8]: > 100 µM

Structure (SMILES): O=C1CCc2c3c(c4c([nH]c5ccccc54)c2CC1)C(=O)NC3=O
- TGI [1]: > 100 µM
- TGI [2]: 17.2 µM
- TGI [3]: > 100 µM
- TGI [4]: 12.1 µM
- TGI [5]: 44.6 µM
- TGI [6]: 12.6 µM
- TGI [11]: > 100 µM
- TGI [7]: 44.9 µM
- TGI [8]: 64.1 µM
- TGI [9]: > 100 µM

Structure (SMILES): Nn1c(CNc2ccc(-c3nnc(Nc4ccc(Cl)cc4)n3N)cc2)nnc1Nc1ccc(Cl)cc1
- TGI [1]: > 100 µM
- TGI [3]: 93 µM
- TGI [4]: > 100 µM
- TGI [5]: > 100 µM
- TGI [6]: > 100 µM
- TGI [10]: > 100 µM
- TGI [11]: > 100 µM
- TGI [7]: > 100 µM
- TGI [8]: > 100 µM

Structure (SMILES): C/C(Cl)=N\OC(=O)Nc1ccc([N+](=O)[O-])cc1
- TGI [1]: 34.2 µM
- TGI [2]: 4.09 µM
- TGI [3]: > 100 µM
- TGI [4]: 38.7 µM
- TGI [5]: 26.1 µM
- TGI [6]: 7.95 µM
- TGI [10]: 25.1 µM
- TGI [11]: 49.9 µM
- TGI [7]: 38.8 µM
- TGI [9]: 31.8 µM

Structure (SMILES): C=CCN1CCC(OC(=O)C(O)(/C=C\CC)C2CCCC2)CC1 (stereo not given)
- TGI [1]: > 100 µM
- TGI [2]: > 100 µM
- TGI [3]: > 100 µM
- TGI [4]: > 100 µM
- TGI [5]: > 100 µM
- TGI [6]: > 100 µM
- TGI [10]: > 100 µM
- TGI [11]: > 100 µM
- TGI [8]: > 100 µM
- TGI [9]: > 100 µM

Structure (SMILES): O=C(CSc1nc2ccc(I)cc2c(=O)n1Cc1ccccc1)N/N=C/c1ccccc1
- TGI [1]: > 100 µM
- TGI [2]: > 100 µM
- TGI [3]: 20.9 µM
- TGI [4]: > 100 µM
- TGI [5]: > 100 µM
- TGI [10]: > 100 µM
- TGI [11]: 71.3 µM
- TGI [7]: > 100 µM
- TGI [8]: > 100 µM
- TGI [9]: > 100 µM

Structure (SMILES): NNC(N)=Nc1cccc2ccccc12
- TGI [1]: > 100 µM
- TGI [2]: > 100 µM
- TGI [3]: > 100 µM
- TGI [4]: > 100 µM
- TGI [5]: > 100 µM
- TGI [6]: > 100 µM
- TGI [11]: > 100 µM
- TGI [7]: > 100 µM
- TGI [8]: > 100 µM
- TGI [9]: > 100 µM

Structure (SMILES): O=C1C=C2S[C@H]3C[C@]2(C=C1Br)c1c(c(O)c2c4c1=NCCC=4C=N2)N3
- TGI [1]: 1.99 µM
- TGI [4]: 1.55 µM
- TGI [5]: 2.01 µM
- TGI [6]: 0.261 µM
- TGI [10]: 0.314 µM
- TGI [11]: 2.57 µM
- TGI [7]: 11.6 µM
- TGI [9]: 3.03 µM

Structure (SMILES): CCCCCCc1nn2c(-c3ccc(C)cc3)nnc2s1
- TGI [1]: > 100 µM
- TGI [3]: > 100 µM
- TGI [4]: > 100 µM
- TGI [5]: > 100 µM
- TGI [10]: > 100 µM
- TGI [11]: > 100 µM
- TGI [7]: > 100 µM
- TGI [8]: > 100 µM
- TGI [9]: > 100 µM

Structure (SMILES): CN1CCc2c(sc3nc(Nc4ccccc4)n(N)c(=O)c23)C1
- TGI [1]: > 100 µM
- TGI [2]: > 100 µM
- TGI [3]: > 100 µM
- TGI [4]: > 100 µM
- TGI [5]: 88 µM
- TGI [10]: > 100 µM
- TGI [11]: > 100 µM
- TGI [7]: > 100 µM
- TGI [8]: > 100 µM
- TGI [9]: > 100 µM

Structure (SMILES): COc1ccc2c(c1)/C(=C(\C(Cl)=C(\Cl)N1CCCCC1)[N+](=O)[O-])N2
- TGI [1]: > 100 µM
- TGI [2]: > 100 µM
- TGI [3]: > 100 µM
- TGI [4]: > 100 µM
- TGI [5]: > 100 µM
- TGI [6]: > 100 µM
- TGI [10]: > 100 µM
- TGI [11]: > 100 µM
- TGI [7]: > 100 µM

Structure (SMILES): Cc1cccc2c1Oc1cc(Cl)ccc1C2NC(=O)CCN1CCCCC1 (stereo not given)
- TGI [1]: 32.7 µM
- TGI [2]: 38.3 µM
- TGI [3]: 28.3 µM
- TGI [4]: 27.1 µM
- TGI [5]: 34 µM
- TGI [10]: 33.1 µM
- TGI [11]: 37.5 µM
- TGI [7]: 31.6 µM
- TGI [8]: 63 µM
- TGI [9]: 31.9 µM

Structure (SMILES): O=C(O)CC(NC(=O)C(F)(F)F)C(=O)NC1Cc2ccccc2OC1=O (stereo not given)
- TGI [1]: > 100 µM
- TGI [3]: > 100 µM
- TGI [4]: > 100 µM
- TGI [5]: > 100 µM
- TGI [6]: > 100 µM
- TGI [10]: > 100 µM
- TGI [11]: > 100 µM
- TGI [7]: > 100 µM
- TGI [8]: > 100 µM
- TGI [9]: > 100 µM

Structure (SMILES): CN(c1c(Cl)cccc1Cl)S(=O)(=O)c1ccccc1[N+](=O)[O-]
- TGI [1]: > 100 µM
- TGI [3]: > 100 µM
- TGI [4]: > 100 µM
- TGI [5]: > 100 µM
- TGI [6]: > 100 µM
- TGI [10]: > 100 µM
- TGI [11]: > 100 µM
- TGI [7]: > 100 µM
- TGI [8]: > 100 µM
- TGI [9]: > 100 µM

Structure (SMILES): C#CCNC(=O)CCC(N)C(=O)O (stereo not given)
- TGI [1]: > 100 µM
- TGI [2]: > 100 µM
- TGI [3]: > 100 µM
- TGI [4]: > 100 µM
- TGI [6]: > 100 µM
- TGI [11]: > 100 µM
- TGI [7]: > 100 µM
- TGI [8]: > 100 µM
- TGI [9]: > 100 µM

Structure (SMILES): CCN(CC)CCN1C(=O)c2cccc3c(-c4ccc5c(c4)ncn5C4CCCCC4)ccc(c23)C1=O
- GI50 [2]: 1.95 µM
- TGI [2]: 4.61 µM
- GI50 [3]: 1.46 µM
- TGI [3]: 3.05 µM
- GI50 [6]: 1.38 µM
- TGI [6]: 2.81 µM
- GI50 [8]: 1.17 µM
- TGI [8]: 3.53 µM
- GI50 [9]: 1.37 µM
- TGI [9]: 2.75 µM

Structure (SMILES): O=C1/C(=C/c2ccc(O)cc2)NC(=S)N1CN1CCCCC1
- TGI [1]: > 100 µM
- TGI [2]: > 100 µM
- TGI [3]: > 100 µM
- TGI [4]: > 100 µM
- TGI [5]: > 100 µM
- TGI [6]: > 100 µM
- TGI [10]: > 100 µM
- TGI [11]: > 100 µM
- TGI [8]: > 100 µM
